# ChEMBL document CHEMBL1138873, “A novel antiproliferative agent, phenylpyridineylbutenol, isolated from Streptomyces sp” (Bioorg Med Chem Lett, 2006)
# What was measured:
# Format in all cases: functional, cell-based
# [1] = test system: HepG2; assay: Antiproliferative activity against human HepG2 by MTT assay
# [2] = test system: A549; assay: Antiproliferative activity against human A549 by MTT assay
# [3] = test system: HeLa; assay: Antiproliferative activity against human HeLa by MTT assay
# [4] = test system: AGS; assay: Antiproliferative activity against human AGS by MTT assay
compound,measurement,setting,value
OC/C=C(\Cc1ccccc1)c1ccccn1,IC50,[1],1600 µM
same,IC50,[2],1130 µM
same,IC50,[3],1380 µM
same,IC50,[4],1980 µM
